The subject of experiment [1] is AD38 cells. Kind of experiment: Activity of test compounds on viral production from AD38 cells (qPCR viral load). In kind it is cell-based, HBV. Further details: key: (+) depicting meets criteria for significant activity; (++) depicting exceeds criteria. As to conditions: 5 days, supernatant qPCR. On the procedure: AD38 cells grown in a 175 cm flash with Growth Medium (DMEM/F12 (1:1) (cat#SH30023.01, Hyclone, 1× Pen/step (cat#: 30-002-CL, Mediatech, Inc), 10% FBS (cat#: 101, Tissue Culture Biologics), 250 μg/mL G418 (cat#: 30-234-CR, Mediatech, Inc), 1 μg/mL Tetracycline (cat#: T3325, Teknova)) were detached with 0.25% trypsin. Tetracycline-free treatment medium (15 mL DMEM/F12 (1:1) (cat#SH30023.01, Hyclone, 1× Pen/step (cat#: 30-002-CL, Mediatech, Inc), with 2% FBS, Tet-system approved (cat#: 631106, Clontech) were then added to mix and spun at 1300 rpm for 5 min. Pelleted cells were then re-suspended/washed with 50 mL of 1×PBS 2 times and 10 mL treatment medium one time. AD38 cells were then re-suspended with 10 mL of treatment medium and counted. Wells of a collagen coated 96-well NUNC microtiter plate were seeded at 50,000/well in 180 μL of treatment medium, and 20 μL of either 10% DMSO (Control) or a 10× solution of test compound in 10% DMSO in treatment media was added for as final compound concentration 1, 3, or 10 μM (1.0% final [DMSO]) and plates were incubated for 5 days at 37° C.
Subsequently viral load production was assayed by quantitative PCR of the core sequence. Briefly, 5 μL of clarified supernatant was added to a PCR reaction mixture that contained forward primers HBV-f 5′-[…]-3′, Reverse primers HBV-r 5′-[…]-3′ and Fluorescent TaqMan™ Probes HBV-probe 5′-FAM/[…]/ZEN/[…]/31ABkFQ-3′ in Quanta Biosciences PerfeCTa® qPCR Toughmix®, and was subsequently on an Applied Biosystems VIIA7 in a final volume of 20 μL. The PCR mixture was incubated at 45° C. for 5 minutes, then 95° C. for 10 min, followed by 40 cycles of 10 seconds at 95° C. and 20 seconds at 60° C. Viral load was quantitated against known standards by using ViiA™ 7 Software. Viral load in the supernatant from wells with treated cells were compared against viral load in supernatant from DMSO control wells (≥3 per plate). In Table 4, concentrations of test compound causing reductions in viral load greater than at least 3 standard deviations from the DMSO controls across all plates were considered active, with (+) depicting meets criteria for significant activity, and (++) depicting exceeds criteria.
For orientation: Quantitative PCR measures a nucleic acid by following its amplification.

For experiment [2], the system named is HBV Cp. In words: Capsid assembly assay (fluorescence quenching). As to conditions: 10 μM compound, control reactions with no drug show 25±5% assembly.

With `CCCc1cc(Nc2ccc(C)cc2)nc(N2CCN(S(=O)(=O)c3ccc(OC)cc3)CC2)n1` [compound 32], the “reduction in viral load vs DMSO controls” value in experiment [1] (test concentration 1 μM), in experiment [1] (test concentration 3 μM) and in experiment [1] (test concentration 10 μM) was “++” in each case. For the same compound, in experiment [2], the “% Capsid formation at 24 h (10 μM)” value was found to be 69%.
`COc1ccc(S(=O)(=O)N2CCN(c3nc(C)cc(Nc4ccc(Br)cc4)n3)CC2)cc1` [compound 34]: the “reduction in viral load vs DMSO controls” value in experiment [1] (test concentration 1 μM), in experiment [1] (test concentration 3 μM) and in experiment [1] (test concentration 10 μM) was “++” in each case. In addition, in experiment [2], the “% Capsid formation at 24 h (10 μM)” value turned out to be 96%.
With `CCc1ccc(Nc2cc(C)nc(N3CCN(S(=O)(=O)c4ccc(OC)cc4)CC3)n2)cc1` [compound 35], the “reduction in viral load vs DMSO controls” value in experiment [1] (test concentration 1 μM), in experiment [1] (test concentration 3 μM) and in experiment [1] (test concentration 10 μM) was “++” each time. Moreover, the “% Capsid formation at 24 h (10 μM)” value in experiment [2] is recorded as 81%.
Regarding `COc1ccc(S(=O)(=O)N2CCN(c3nc(C)cc(Nc4ccc(Cl)cc4)n3)CC2)cc1` [compound 37], the “reduction in viral load vs DMSO controls” value in experiment [1] (test concentration 1 μM), in experiment [1] (test concentration 3 μM) and in experiment [1] (test concentration 10 μM) was “++” each time. Further, in experiment [2], the “% Capsid formation at 24 h (10 μM)” value is 93%.
Turning to `COc1ccc(S(=O)(=O)N2CCN(c3nc(C)cc(Nc4ccc(C(F)(F)F)cc4)n3)CC2)cc1` [compound 40], the “reduction in viral load vs DMSO controls” value in experiment [1] (test concentration 1 μM), in experiment [1] (test concentration 3 μM) and in experiment [1] (test concentration 10 μM) was “++” in each case. Moreover, in experiment [2], the “% Capsid formation at 24 h (10 μM)” value came to 91%.
As to `COc1ccc(S(=O)(=O)N2CCN(c3nc(C)cc(Nc4ccc(C#N)cc4)n3)CC2)cc1` [compound 42], in experiment [1] (test concentration 10 μM), the “reduction in viral load vs DMSO controls” value is “++”. The “% Capsid formation at 24 h (10 μM)” value in experiment [2] was 69%.

(Values after US10220034B2, “Hepatitis B viral assembly effectors” (Indiana University Research and Technology Corp., priority 2013, dated 2019).)
